# Measured values published in US20140057877A1, “Therapeutic polyamine compositions and their synthesis” (priority 2002, published 2014).
# Where two headings read alike, the source gives them in different places.
# How the values were obtained:
# [1] = Oil water partition coefficients (octanol/water, HPLC); assay type: physicochemical; settings: for lipid water partitioning, in words: passage through gastrointestinal barrier and blood brain barrier
# Method: Partition coefficients were determined by dissolving the compound in a 1:1 mixture of octanol/water and shaking the solution for 12 hours. HPLC was used to determine the partition coefficient. The reported values are the log of the octanol/water partition
# [2] = pKa by potentiometric titration; assay type: physicochemical; settings: aqueous solution, ionic strength 0.10, 25° C.
# Method: PKa's were determined by standard potentiometric titration methods in aqueous solution with an ionic strength of 0.10 at 25° C. Values are reported as log K values of the equilibrium constant.
# [3] = test system: E. coli (GM 7359) alkA tag E. coli mutant; settings: 60 minutes
# Method: (§2) Bacteria were inoculated and cultured in nutrient agar for eighteen hours, using a shaking incubator at 140 r.p.m and 35° C. Medium contained 10 mM HEPES buffer at pH 7. Cells were centrifuged twice in Sorval RC-5 centrifuge 12,000 r.pm.×15 minutes at 4° C. and washed twice in 10 uM HEPES buffer. The resuspended cells were counted using a Hemocrit and diluted to a level of 5×10^1 cells per ml in 10 μM HEPES. The cells, the following toxins; methyl viologen (paraquat), methyl viologen (MPP^+), rotenone, daizoxide, streptozotocin and alloxan, and antidotes were added, reaching final volumes of 1 ml in Eppendorf tubes and placed on a rotator at room temperature. 10 μM diethylenetriaminepentaacetic acid was added to the samples to terminate the reactions at the specified times of either twenty or sixty minutes. 300 μL of cells were plated on Petri plates containing nutrient agar and incubated at 35° C. overnight. Colonies were counted after 20 hours. Percentage survival as compared with culture controls is calculated from the means of triplicates in each experimental group.
# [4] = cited from earlier work
# S. aureus (ATCC 29213) [5] = assay: Bacterial survival, toxin diazoxide and antidotes; assay type: cell-based; settings: 60 minutes
# Method: (§1) Medium contained 10 mM HEPES buffer at pH 7. […] Colonies were counted after 20 hours.
# [6] = test system: E. coli (GM 7359) alkA tag E. coli mutant; settings: 60 minutes; remark: listed apart in the source
# Method: as §2
# M. Luteus (ATCC 499732) = assay: Bacterial survival, toxin diazoxide and antidotes
# Method: as §2
# [7] = test system: E. coli (GM 7359) alkA tag E. coli mutant; assay: Bacterial survival, toxin streptozotocin and antidotes; settings: 60 minutes
# Method: as §2
# E. coli (ATCC 35150) = assay type: cell-based; settings: 60 minutes
# Method: as §1
# S. aureus (ATCC 29213) [8] = assay type: cell-based
# Method: as §1
# [9] = test system: MPTP induced dopamine loss; settings: previously reported; cited from earlier work
# [10] = 1:1 octanol/water, shaken 12 hours, HPLC
# [11] = 0.15 mM Diazoxide + 2.5 uM antidote
# [12] = 0.15 mM Diazoxide + 5 uM antidote
compound,measurement,setting,value
"NCCNCCNCCN [2,2,2-tetramine, reference compound]",Log Partition Coefficient Octanol:Water,[1]; [10],1.6
same,"lipid water partitioning, in words",[1],optimal lipid water partitioning
same,pKa(1),[2],9.7
same,pKa(2),[2],9.1
same,pKa(3),[2],6.6
same,pKa(4),[2],3.3
same,Mean % Survival,[3]; 100 mM Rotenone + 0.5 mM antidote,67%
same,Mean % Survival,[3]; 100 mM Rotenone + 2 mM antidote,100%
same,Mean % Survival,[3]; substance alone 2 mM,100%
same,half life in vivo,[4],only a few hours
same,"metabolism and excretion, in words",[4]; in vivo,"rapidly metabolized to acetyl 2,2,2-tetramine and rapidly excreted"
"c1ccc(CNCCCNCc2ccccn2)nc1 [2,3,2-pyridine, (2-pyridylmethyl){3-[(2-pyridylmethyl)amino]propyl}amine]",logP at 12 h,"[1]; octanol/water (1:1), 1:1 octanol/water, shaken 12 hours, HPLC, read-out: Log Partition Coefficient Octanol:Water",2.7
same,"lipid water partitioning, in words",[1],optimal lipid water partitioning
same,pKa,[2]; read-out: pKa(1),8.3
same,pKa,[2]; read-out: pKa(2),7.4
same,Mean % Survival,S. aureus (ATCC 29213) [5]; [11],61%
same,Mean % Survival,S. aureus (ATCC 29213) [5]; [12],84%
same,Mean % Survival,S. aureus (ATCC 29213) [5]; substance alone 5 uM,99%
same,Mean % Survival,[3]; 100 uM Rotenone + 2.5 uM antidote,100%
same,Mean % Survival,[3]; 100 uM Rotenone + 5 uM antidote,100%
same,Mean % Survival,[3]; 100 uM Rotenone + 20 uM antidote,100%
same,Mean % Survival,[3]; 100 uM Rotenone + 50 uM antidote,100%
same,Mean % Survival,[3]; substance alone 50 uM,100%
same,Mean % Survival,[6]; 2 mM Alloxan + 10 uM antidote,100%
same,Mean % Survival,[6]; substance alone 10 uM,100%
same,Mean % Survival,"M. Luteus (ATCC 499732); 0.2 mM Diazoxide + 2.5 uM antidote, T20",96%
same,Mean % Survival,"M. Luteus (ATCC 499732); 0.2 mM Diazoxide + 2.5 uM antidote, T60",99%
same,Mean % Survival,"M. Luteus (ATCC 499732); 0.2 mM Diazoxide + 5 uM antidote, T20",93%
same,Mean % Survival,"M. Luteus (ATCC 499732); 0.2 mM Diazoxide + 5 uM antidote, T60",100%
same,Mean % Survival,"M. Luteus (ATCC 499732); 0.2 mM Diazoxide + 10 uM antidote, T20",100%
same,Mean % Survival,"M. Luteus (ATCC 499732); 0.2 mM Diazoxide + 10 uM antidote, T60",100%
same,Mean % Survival,"M. Luteus (ATCC 499732); 0.2 mM Diazoxide + 20 uM antidote, T20",100%
same,Mean % Survival,"M. Luteus (ATCC 499732); 0.2 mM Diazoxide + 20 uM antidote, T60",100%
same,Mean % Survival,"M. Luteus (ATCC 499732); 0.2 mM Diazoxide + 40 uM antidote, T20",100%
same,Mean % Survival,"M. Luteus (ATCC 499732); 0.2 mM Diazoxide + 40 uM antidote, T60",70%
same,Mean % Survival,"M. Luteus (ATCC 499732); substance alone 40 uM, T20 (20 minutes)",100%
same,Mean % Survival,"M. Luteus (ATCC 499732); substance alone 40 uM, T60 (60 minutes)",100%
same,Mean % Survival,[7]; 100 uM Streptozotocin + 2.5 uM antidote,100%
same,Mean % Survival,[7]; 100 uM Streptozotocin + 5 uM antidote,100%
same,Mean % Survival,[7]; 100 uM Streptozotocin + 20 uM antidote,100%
same,Mean % Survival,[7]; substance alone 20 uM,100%
"NCCNCCCNCCN [2,3,2-tetramine, 1,3-bis-[(2′-aminoethyl)-amino]propane]",Log Partition Coefficient Octanol:Water,[1]; [10],2.1
same,"lipid water partitioning, in words",[1],optimal lipid water partitioning
same,pKa(1),[2],10.3
same,pKa(2),[2],9.5
same,pKa(3),[2],7.3
same,pKa(4),[2],6.0
same,Mean % Survival,E. coli (ATCC 35150); 1.0 mM Paraquat + 1.0 mM antidote,100%
same,Mean % Survival,E. coli (ATCC 35150); substance alone 1 mM,100%
same,Mean % Survival,S. aureus (ATCC 29213) [8],78%
same,Mean % Survival,"S. aureus (ATCC 29213) [8]; 0.5 mM Paraquat + 1 mM antidote, 60 minutes",80%
same,Mean % Survival,"S. aureus (ATCC 29213) [8]; substance alone 1 mM, 60 minutes",100%
same,Mean % Survival,S. aureus (ATCC 29213) [5]; [11],65%
same,Mean % Survival,S. aureus (ATCC 29213) [5]; [12],78%
same,Mean % Survival,S. aureus (ATCC 29213) [5]; 0.15 mM Diazoxide + 10 uM antidote,78%
same,Mean % Survival,S. aureus (ATCC 29213) [5]; 0.15 mM Diazoxide + 20 uM antidote,75%
same,Mean % Survival,S. aureus (ATCC 29213) [5]; substance alone 20 uM,99%
same,"prevention of MPTP induced dopamine loss, in words",[9],prevent MPTP induced dopamine loss
C[n+]1ccc(-c2cc[n+](C)cc2)cc1 [Paraquat],Mean % Survival,E. coli (ATCC 35150); substance alone 0.5 mM,16%
same,Mean % Survival,E. coli (ATCC 35150); substance alone 1 mM,10%
same,Mean % Survival,"S. aureus (ATCC 29213) [8]; substance alone 0.5 mM, 60 minutes",39%
